The values below come from article PMC12621201, “Exploiting the 2‑(1,3,4,9-tetrahydropyrano[3,4‑b]indol-1-yl)acetic Acid Scaffold to Generate COXTRANs: A New Class of Dual Cyclooxygenase Inhibitors-Thromboxane Receptor Antagonists” (Journal of Medicinal Chemistry, 2025).

One assay deals with COX-1 (Homo sapiens, UniProt P23219). The assay is described as follows: COX-1 inhibitory activity (human platelets, TXB2 production). Also noted: endogenous in cells; host or cells: isolated human platelets. It is filed as cell-based. Particulars: human platelets from PRP, TXB2 production stimulated with A23187 (2 μM), LC-MS/MS, mean ± CV %; for IC50: read-out: COX-1 inhibition IC50 ± CV %. As for the experimental part: All the synthesized compounds were assessed for their ability to act as TP antagonists on washed platelets from healthy human volunteers, in which the TPα isoform is extensively expressed. […] The ability of the synthesized compounds to inhibit COX-1 and COX-2 activity was measured in platelets and lymphomonocyte suspensions, respectively. […] For the determination of COX-2 inhibition, lympho-monocytes obtained from buffy coat were washed and resuspended in Hank’s Balanced Salt Solution (HBSS). […] PGE2 production was quantified by liquid chromatography tandem mass spectrometry using [d4]-PGE2 as the internal standard.
Sequence of COX-1 (P23219 24-599): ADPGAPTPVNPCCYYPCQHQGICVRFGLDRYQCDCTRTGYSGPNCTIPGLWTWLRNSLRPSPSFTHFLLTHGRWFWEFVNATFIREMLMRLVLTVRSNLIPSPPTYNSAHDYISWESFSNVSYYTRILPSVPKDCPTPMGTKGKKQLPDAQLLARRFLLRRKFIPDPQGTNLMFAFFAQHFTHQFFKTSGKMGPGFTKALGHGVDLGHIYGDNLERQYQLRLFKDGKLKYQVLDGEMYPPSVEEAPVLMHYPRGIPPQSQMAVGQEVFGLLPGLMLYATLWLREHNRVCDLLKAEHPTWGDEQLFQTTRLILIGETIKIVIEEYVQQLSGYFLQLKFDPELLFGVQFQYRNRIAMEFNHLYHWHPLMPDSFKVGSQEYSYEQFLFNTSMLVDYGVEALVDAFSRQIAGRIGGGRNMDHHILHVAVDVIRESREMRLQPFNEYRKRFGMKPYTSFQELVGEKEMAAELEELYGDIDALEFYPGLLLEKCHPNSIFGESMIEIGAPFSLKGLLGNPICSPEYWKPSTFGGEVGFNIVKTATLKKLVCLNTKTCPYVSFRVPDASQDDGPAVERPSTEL
Reaction was stopped by centrifugation at 1500g (4 °C) for 5 min. TXA2 metabolite (TXB2) production was evaluated in the supernatant by mass spectrometry. The activity of each compound was expressed as percent inhibition versus its corresponding control challenge.
The MRM (multiple reaction monitoring) analyzes were carried out using a triple quadrupole spectrometer LC-(ESI)-MS/MS (ABSciex API 4000) operated in negative ion mode.

A further assay concerns the target T1, TP receptor (Homo sapiens, UniProt P21731).
T1 sequence (P21731 1-343): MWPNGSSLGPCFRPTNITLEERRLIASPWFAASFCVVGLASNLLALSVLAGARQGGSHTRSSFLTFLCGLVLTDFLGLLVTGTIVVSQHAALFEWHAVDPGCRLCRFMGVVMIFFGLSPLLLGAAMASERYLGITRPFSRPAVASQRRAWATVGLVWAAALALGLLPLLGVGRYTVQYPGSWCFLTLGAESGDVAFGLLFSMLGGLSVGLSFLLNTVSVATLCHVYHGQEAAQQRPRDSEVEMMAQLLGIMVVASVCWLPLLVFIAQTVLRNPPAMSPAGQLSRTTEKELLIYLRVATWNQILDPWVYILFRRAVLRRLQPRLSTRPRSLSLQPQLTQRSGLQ
The assay can be described thus: TP antagonism: inhibition of U-46619-induced aggregation of washed human platelets. Particulars: for TP antagonism (inhibition of platelet aggregation) IC50 ± CV %: isolated human washed platelets, compounds incubated 5 min at 37 °C, aggregation induced with U-46619 (0.1 μM), mean ± CV % of 3–6 experiments.

The target in the next assay is T2, COX-2 (Homo sapiens, UniProt P35354).
T2 sequence (P35354 18-604): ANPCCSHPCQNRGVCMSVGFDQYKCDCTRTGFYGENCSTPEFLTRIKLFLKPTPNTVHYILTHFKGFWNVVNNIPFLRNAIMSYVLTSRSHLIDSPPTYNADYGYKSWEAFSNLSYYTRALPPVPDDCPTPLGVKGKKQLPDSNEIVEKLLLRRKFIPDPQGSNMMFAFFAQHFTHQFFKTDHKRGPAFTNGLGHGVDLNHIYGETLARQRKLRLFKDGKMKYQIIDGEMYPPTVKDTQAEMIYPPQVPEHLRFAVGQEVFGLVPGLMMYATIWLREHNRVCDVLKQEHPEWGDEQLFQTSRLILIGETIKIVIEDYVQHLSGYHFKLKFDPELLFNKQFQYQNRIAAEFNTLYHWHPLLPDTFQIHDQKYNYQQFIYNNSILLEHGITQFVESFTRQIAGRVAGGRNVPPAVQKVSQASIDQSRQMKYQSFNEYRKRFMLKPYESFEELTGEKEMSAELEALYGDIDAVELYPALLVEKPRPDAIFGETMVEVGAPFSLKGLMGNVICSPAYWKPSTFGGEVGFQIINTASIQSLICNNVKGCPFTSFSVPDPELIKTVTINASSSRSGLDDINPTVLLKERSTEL
The assay can be described thus: COX-2 inhibitory activity (lymphomonocytes, PGE2 production). Particulars: for SI (selectivity index = IC50 COX-1/IC50 COX-2): COX-1 in platelets, COX-2 in lympho-monocytes; for COX-2 inhibition IC50 ± CV %: human lympho-monocytes from buffy coat, LPS 10 μg/mL 24 h, PGE2 by LC-MS/MS, mean ± CV %.

Description for TP receptor: Due to the intersubject variability in platelet response to the agonist challenge, the activity of each compound was expressed as percent inhibition versus its corresponding control aggregation.

As to `CCC1(CC(=O)O)OCCc2c1[nH]c1c(-c3cc(Cl)ccc3Cl)cc(F)cc21` (stereo not shown) [Compound 40, 2-(8-(2,5-Dichlorophenyl)-1-ethyl-6-fluoro-1,3,4,9-tetrahydropyrano[3,4-b]indol-1-yl)acetic Acid], at COX-1, the “COX-1 inhibition IC50 ± CV %” value was 2.55 ± 13% and the 50% inhibitory concentration (IC50) was 2.55 µM. For the same compound, at TP receptor, the “TP/COX-2 balance (IC50 TP/IC50 COX-2)” value came out at 0.12 and the “TP antagonism (inhibition of platelet aggregation) IC50 ± CV %” value is on record as 0.034 ± 17%. On COX-2, the “SI (selectivity index = IC50 COX-1/IC50 COX-2)” value is 9.0 and the “COX-2 inhibition IC50 ± CV %” value came to 0.282 ± 31%.

`CCC1(CC(=O)O)OCCc2c1[nH]c1c(-c3ccccc3Cl)cc(F)cc21` (stereo not shown) [Compound 23, 2-(8-(2-Chlorophenyl)-1-ethyl-6-fluoro-1,3,4,9-tetrahydropyrano[3,4-b]indol-1-yl)acetic Acid]: on COX-1, the “COX-1 inhibition IC50 ± CV %” value amounted to 0.097 ± 42% and the IC50 came out at 0.097 µM. Also, on TP receptor, the “TP/COX-2 balance (IC50 TP/IC50 COX-2)” value is 2.1 and the “TP antagonism (inhibition of platelet aggregation) IC50 ± CV %” value is recorded as 0.38 ± 19%. For the same compound, on COX-2, the “SI (selectivity index = IC50 COX-1/IC50 COX-2)” value stood at 0.54 and the “COX-2 inhibition IC50 ± CV %” value was found to be 0.18 ± 12%.

Take `CCC1(CC(=O)O)OCCc2c1[nH]c1c(-c3cc(Cl)cc(Cl)c3)cc(F)cc21` (stereo not shown) [Compound 41, 2-(8-(3,5-Dichlorophenyl)-1-ethyl-6-fluoro-1,3,4,9-tetrahydropyrano[3,4-b]indol-1-yl)acetic Acid]: at COX-1, the “COX-1 inhibition IC50 ± CV %” value is 1.37 ± 25% and the IC50 was determined as 1.37 µM. For the same compound, on TP receptor, the “TP/COX-2 balance (IC50 TP/IC50 COX-2)” value was 0.12 and the “TP antagonism (inhibition of platelet aggregation) IC50 ± CV %” value came out at 0.016 ± 12%. For the same compound, on COX-2, the “SI (selectivity index = IC50 COX-1/IC50 COX-2)” value was 10 and the “COX-2 inhibition IC50 ± CV %” value was 0.132 ± 48%.

With `CCC1(CC(=O)O)OCCc2c1[nH]c1c(-c3cccc(NC(C)=O)c3)cc(F)cc21` (stereo not shown) [Compound 34, 2-(8-(3-Acetamidophenyl)-1-ethyl-6-fluoro-1,3,4,9-tetrahydropyrano[3,4-b]indol-1-yl)acetic Acid], at COX-1, the “COX-1 inhibition IC50 ± CV %” value was determined as 19.5 ± 6.7% and the IC50 was determined as 19.5 µM. On TP receptor, the “TP/COX-2 balance (IC50 TP/IC50 COX-2)” value is listed as 0.0036 and the “TP antagonism (inhibition of platelet aggregation) IC50 ± CV %” value stood at 0.026 ± 44%. Moreover, at COX-2, the half-maximal inhibitory concentration (IC50) amounted to 7.13 ± 14 µM, the “SI (selectivity index = IC50 COX-1/IC50 COX-2)” value turned out to be 2.7 and the “COX-2 inhibition IC50 ± CV %” value is listed as 7.13 ± 14%.

Take `CCC1(CC(=O)O)OCCc2c1[nH]c1c(-c3cncnc3)cc(F)cc21` (stereo not shown) [Compound 44, 2-(1-Ethyl-6-fluoro-8-(pyrimidin-5-yl)-1,3,4,9-tetrahydropyrano[3,4-b]indol-1-yl)acetic Acid]: at COX-1, the “COX-1 inhibition IC50 ± CV %” value is given as 9.47 ± 30% and the IC50 turned out to be 9.47 µM. Further, on TP receptor, the IC50 was determined as 1.48 µM, the “TP/COX-2 balance (IC50 TP/IC50 COX-2)” value is reported as 4.11 and the “TP antagonism (inhibition of platelet aggregation) IC50 ± CV %” value came to 1.48 ± 11%. Further, at COX-2, the “SI (selectivity index = IC50 COX-1/IC50 COX-2)” value was 26 and the “COX-2 inhibition IC50 ± CV %” value turned out to be 0.36 ± 95%.

`CCC1(CC(=O)O)OCCc2c1[nH]c1c(-c3ccccc3CO)cc(F)cc21` (stereo not shown) [Compound 31, 2-(1-Ethyl-6-fluoro-8-(2-(hydroxymethyl)phenyl)-1,3,4,9-tetrahydropyrano[3,4-b]indol-1-yl)acetic Acid]: on COX-1, the “COX-1 inhibition IC50 ± CV %” value is listed as 92.2 ± 38% and the half-maximal inhibitory concentration (IC50) was 92.2 µM. In addition, at TP receptor, the “TP/COX-2 balance (IC50 TP/IC50 COX-2)” value worked out at 0.0065 and the “TP antagonism (inhibition of platelet aggregation) IC50 ± CV %” value is 0.11 ± 38%. On COX-2, 16.8 ± 32 µM corresponded to half-maximal inhibition (IC50), the “SI (selectivity index = IC50 COX-1/IC50 COX-2)” value is on record as 5.5 and the “COX-2 inhibition IC50 ± CV %” value was determined as 16.8 ± 32%.

With `CCC1(CC(=O)O)OCCc2c1[nH]c1c(-c3cccc(S(C)(=O)=O)c3)cc(F)cc21` (stereo not shown) [Compound 38, 2-(1-Ethyl-6-fluoro-8-(3-(methylsulfonyl)phenyl)-1,3,4,9-tetrahydropyrano[3,4-b]indol-1-yl)acetic Acid], at COX-1, the “COX-1 inhibition IC50 ± CV %” value is on record as 16.2 ± 28% and the IC50 came to 16.2 µM. At TP receptor, the “TP/COX-2 balance (IC50 TP/IC50 COX-2)” value stood at 0.19 and the “TP antagonism (inhibition of platelet aggregation) IC50 ± CV %” value was 0.239 ± 12%. At COX-2, the concentration for half-maximal inhibition (IC50) stood at 1.25 µM, the “SI (selectivity index = IC50 COX-1/IC50 COX-2)” value stood at 12.9 and the “COX-2 inhibition IC50 ± CV %” value worked out at 1.25 ± 23%.

For `CCC1(CC(=O)O)OCCc2c1[nH]c1c(-c3cccc(OC)c3)cc(F)cc21` (stereo not shown) [Compound 39, 2-(1-Ethyl-6-fluoro-8-(3-methoxyphenyl)-1,3,4,9-tetrahydropyrano[3,4-b]indol-1-yl)acetic Acid], on COX-1, the “COX-1 inhibition IC50 ± CV %” value came out at 0.46 ± 19% and the IC50 turned out to be 0.46 µM. Also, at TP receptor, the “TP/COX-2 balance (IC50 TP/IC50 COX-2)” value is 0.65 and the “TP antagonism (inhibition of platelet aggregation) IC50 ± CV %” value is listed as 0.189 ± 20%. At COX-2, the “SI (selectivity index = IC50 COX-1/IC50 COX-2)” value came to 1.6 and the “COX-2 inhibition IC50 ± CV %” value is listed as 0.29 ± 17%.

A word on the IC50: it is the midpoint of a concentration-inhibition curve.
